What was measured:
[1] = tested on: Mycobacterium tuberculosis Erdman (pMV306hsp+LuxG13); assay: log2 fractional inhibitory concentration at 90% inhibition (log2 FIC); higher = more antagonistic
Protocol: (§1)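 DiaMOND pairwise dose responses of an equipotent two-drug mixture (1.5-fold, 10-dose series) against autoluminescent M. tuberculosis Erdman in 384-well plates. Growth inhibition was read by OD600 (luminescence for dormancy) in seven media at a constant and a terminal time point; metrics are means of at least biological duplicates. Einf and AUC25 higher = more potent; GRinf lower = more potent; log2FIC negative = synergy.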

[2] = tested on: Mycobacterium tuberculosis Erdman (pMV306hsp+LuxG13); assay: log2 fractional inhibitory concentration at 50% inhibition (log2 FIC); higher = more antagonistic
Protocol: as §1

[3] = tested on: Mycobacterium tuberculosis Erdman (pMV306hsp+LuxG13); assay: AUC25, normalised area under the dose-response curve up to IC25 (normalised AUC (unitless)); higher = more potent
Protocol: as §1

[4] = tested on: Mycobacterium tuberculosis Erdman (pMV306hsp+LuxG13); assay: GRinf, normalised growth-rate inhibition at infinite dose (GR value (unitless, negative = killing)); higher = less potent
Protocol: as §1

[5] = tested on: Mycobacterium tuberculosis Erdman (pMV306hsp+LuxG13); assay: Einf, effect of the drug pair at infinite dose (maximum growth inhibition) (fraction inhibition (0-1)); higher = more potent; extreme values may be limits of the assay
Protocol: as §1

CO[C@H]1/C=C/O[C@@]2(C)Oc3c(C)c(O)c4c(O)c(c(/C=N/N5CCN(C6CCCC6)CC5)c(O)c4c3C2=O)NC(=O)/C(C)=C\C=C\[C@H](C)[C@H](O)[C@@H](C)[C@@H](O)[C@@H](C)[C@H](OC(C)=O)[C@@H]1C [rifapentine] + CC(=O)NC[C@H]1CN(c2ccc(N3CCSCC3)c(F)c2)C(=O)O1 [sutezolid]
Details | AUC25, [3] | Einf, [5] | GRinf, [4] | log2 fractional inhibitory concentration, [1] | log2 fractional inhibitory concentration, [2]
growth medium: acidic pH 5.7, glycerol, time point: constant time point | 0.0889 | 0.884 | -0.224 | – | -0.201
growth medium: acidic pH 5.7, glycerol, time point: terminal time point | 0.0808 | 0.987 | -0.263 | -0.527 | 0.0996
growth medium: butyrate 5 mM, time point: constant time point | 0.0809 | 0.896 | 0.0472 | – | 0.129
growth medium: butyrate 5 mM, time point: terminal time point | 0.0542 | 0.942 | 0.0324 | -0.276 | 0.16
growth medium: cholesterol 0.05 mM, time point: constant time point | 0.0962 | 1 | -1 | 0.00059 | -0.454
growth medium: cholesterol 0.05 mM, time point: terminal time point | 0.135 | 1 | -1 | -0.142 | -1.5
growth medium: cholesterol 0.2 mM (cholesterol-high), time point: constant time point | 0.0718 | 1 | -1 | -0.285 | -0.331
growth medium: cholesterol 0.2 mM (cholesterol-high), time point: terminal time point | 0.0787 | 1 | -0.769 | -0.276 | -0.38
growth medium: standard 7H9 OADC glycerol, time point: constant = terminal time point (4.2 d) | 0.0417 | 0.983 | -0.0675 | -0.509 | -0.00234
growth medium: valerate 0.1%, time point: constant time point | 0.107 | 0.877 | -0.107 | – | -0.128
growth medium: valerate 0.1%, time point: terminal time point | 0.0657 | 0.976 | -0.0835 | 0.234 | 0.176

growth medium: hypoxic dormancy (butyrate + nitrate), then recovery
Details | AUC25, [3] | Einf, [5] | GRinf, [4] | log2 fractional inhibitory concentration, [1] | log2 fractional inhibitory concentration, [2]
time point: constant time point | 0.0482 | 0.974 | 0.21 | -0.514 | -0.541
time point: terminal time point | 0.0473 | 0.963 | 0.209 | 0.244 | 0.397

CO[C@H]1/C=C/O[C@@]2(C)Oc3c(C)c(O)c4c(O)c(c(/C=N/N5CCN(C)CC5)c(O)c4c3C2=O)NC(=O)/C(C)=C\C=C\[C@H](C)[C@H](O)[C@@H](C)[C@@H](O)[C@@H](C)[C@H](OC(C)=O)[C@@H]1C [rifampicin] + CC(=O)NC[C@H]1CN(c2ccc(N3CCSCC3)c(F)c2)C(=O)O1 [sutezolid]
Details | AUC25, [3] | Einf, [5] | GRinf, [4] | log2 fractional inhibitory concentration, [1] | log2 fractional inhibitory concentration, [2]
growth medium: acidic pH 5.7, glycerol, time point: constant time point | 0.0817 | 0.853 | -0.111 | – | 0.233
growth medium: acidic pH 5.7, glycerol, time point: terminal time point | 0.076 | 0.977 | -0.205 | -0.595 | 0.315
growth medium: butyrate 5 mM, time point: constant time point | 0.0989 | 0.911 | 0.0134 | – | -0.239
growth medium: butyrate 5 mM, time point: terminal time point | 0.0783 | 0.953 | -0.0141 | -0.298 | -0.147
growth medium: cholesterol 0.2 mM (cholesterol-high), time point: constant time point | 0.0474 | 0.988 | -0.878 | -0.588 | -0.0927
growth medium: cholesterol 0.2 mM (cholesterol-high), time point: terminal time point | 0.0807 | 1 | -0.728 | -0.315 | -0.136
growth medium: standard 7H9 OADC glycerol, time point: constant = terminal time point (4.2 d) | 0.0433 | 0.969 | -0.0246 | -0.846 | -0.167
growth medium: valerate 0.1%, time point: constant time point | 0.11 | 0.962 | 0.0594 | – | 1.45
growth medium: valerate 0.1%, time point: terminal time point | 0.0701 | 0.979 | -0.0207 | 0.302 | 0.427

growth medium: hypoxic dormancy (butyrate + nitrate), then recovery
Details | AUC25, [3] | Einf, [5] | GRinf, [4] | log2 fractional inhibitory concentration, [1] | log2 fractional inhibitory concentration, [2]
time point: constant time point | 0.0508 | 0.978 | 0.206 | -0.578 | -0.575
time point: terminal time point | 0.06 | 0.971 | 0.237 | -0.678 | 0.255

O=[N+]([O-])c1cn2c(n1)OC[C@@H](OCc1ccc(OC(F)(F)F)cc1)C2 [pretomanid] + CC(=O)NC[C@H]1CN(c2ccc(N3CCSCC3)c(F)c2)C(=O)O1 [sutezolid]
Details | AUC25, [3] | Einf, [5] | GRinf, [4] | log2 fractional inhibitory concentration, [1] | log2 fractional inhibitory concentration, [2]
growth medium: acidic pH 5.7, glycerol, time point: constant time point | 0.0784 | 0.879 | -0.246 | – | -0.119
growth medium: acidic pH 5.7, glycerol, time point: terminal time point | 0.0823 | 0.987 | -0.346 | -0.449 | 0.0862
growth medium: butyrate 5 mM, time point: constant time point | 0.0935 | 0.93 | 0.0242 | – | 1.07
growth medium: butyrate 5 mM, time point: terminal time point | 0.0736 | 0.97 | -0.0169 | 1.11 | 0.95
growth medium: cholesterol 0.05 mM, time point: constant time point | 0.0266 | 0.865 | -1 | – | -0.159
growth medium: cholesterol 0.2 mM (cholesterol-high), time point: constant time point | 0.0533 | 0.961 | -0.417 | 0.19 | -0.512
growth medium: cholesterol 0.2 mM (cholesterol-high), time point: terminal time point | 0.0918 | 1 | -0.326 | -0.4 | -0.395
growth medium: standard 7H9 OADC glycerol, time point: constant = terminal time point (4.2 d) | 0.0632 | 0.988 | -0.142 | -0.266 | 0.0178
growth medium: valerate 0.1%, time point: constant time point | 0.119 | 0.974 | -0.158 | – | -0.783
growth medium: valerate 0.1%, time point: terminal time point | 0.0856 | 0.978 | -0.0339 | -0.487 | -0.609

growth medium: hypoxic dormancy (butyrate + nitrate), then recovery
Details | AUC25, [3] | Einf, [5] | GRinf, [4] | log2 fractional inhibitory concentration, [1] | log2 fractional inhibitory concentration, [2]
time point: constant time point | 0.0715 | 0.965 | 0.332 | -0.853 | -0.376
time point: terminal time point | 0.0423 | 0.932 | 0.457 | -0.41 | -0.056

NNC(=O)c1ccncc1 [isoniazid] + CC(C)=CCC/C(C)=C/CNCCNC1C2CC3CC(C2)CC1C3 [SQ109]
Details | AUC25, [3] | Einf, [5] | GRinf, [4] | log2 fractional inhibitory concentration, [1] | log2 fractional inhibitory concentration, [2]
growth medium: butyrate 5 mM, time point: constant time point | 0.0624 | 0.897 | 0.0429 | – | 0.35
growth medium: butyrate 5 mM, time point: terminal time point | 0.0434 | 0.944 | 0.0572 | 0.00828 | 0.29
growth medium: cholesterol 0.05 mM, time point: constant time point | 0.1 | 0.84 | -0.682 | – | 1.02
growth medium: cholesterol 0.2 mM (cholesterol-high), time point: constant time point | 0.0635 | 0.999 | -0.997 | 0.434 | 0.5
growth medium: cholesterol 0.2 mM (cholesterol-high), time point: terminal time point | 0.0743 | 1 | -0.87 | 0.311 | 0.189
growth medium: standard 7H9 OADC glycerol, time point: constant = terminal time point (4.2 d) | 0.0551 | 0.858 | 0.218 | – | 0.45
growth medium: valerate 0.1%, time point: constant time point | 0.0611 | 0.964 | -0.00837 | 0.14 | 0.052
growth medium: valerate 0.1%, time point: terminal time point | 0.0646 | 0.968 | -0.0113 | 0.00427 | 0.109

growth medium: hypoxic dormancy (butyrate + nitrate), then recovery
Details | AUC25, [3] | Einf, [5] | GRinf, [4] | log2 fractional inhibitory concentration, [1] | log2 fractional inhibitory concentration, [2]
time point: constant time point | 0.0841 | 0.994 | -0.408 | 0.0195 | -0.42
time point: terminal time point | 0.0403 | 0.96 | 0.13 | -0.76 | -0.641

CC(C)/N=c1\cc2n(-c3ccc(Cl)cc3)c3ccccc3nc-2cc1Nc1ccc(Cl)cc1 [clofazimine] + CC(C)=CCC/C(C)=C/CNCCNC1C2CC3CC(C2)CC1C3 [SQ109]
Details | AUC25, [3] | Einf, [5] | GRinf, [4] | log2 fractional inhibitory concentration, [1] | log2 fractional inhibitory concentration, [2]
growth medium: butyrate 5 mM, time point: constant time point | 0.0628 | 0.941 | -0.113 | -0.83 | -0.227
growth medium: butyrate 5 mM, time point: terminal time point | 0.0621 | 0.973 | -0.111 | -0.678 | -0.367
growth medium: cholesterol 0.05 mM, time point: constant time point | 0.0691 | 0.758 | -0.558 | – | -0.774
growth medium: cholesterol 0.2 mM (cholesterol-high), time point: constant time point | 0.0566 | 0.997 | -0.966 | -0.582 | -0.041
growth medium: cholesterol 0.2 mM (cholesterol-high), time point: terminal time point | 0.0744 | 1 | -0.823 | -0.374 | 0.4
growth medium: standard 7H9 OADC glycerol, time point: constant = terminal time point (4.2 d) | 0.0939 | 0.937 | -0.0512 | – | -0.519

growth medium: hypoxic dormancy (butyrate + nitrate), then recovery
Details | AUC25, [3] | Einf, [5] | GRinf, [4] | log2 fractional inhibitory concentration, [1] | log2 fractional inhibitory concentration, [2]
time point: constant time point | 0.0761 | 0.99 | -0.486 | -2.43 | -1.61
time point: terminal time point | 0.0554 | 0.962 | 0.147 | -1.63 | -1.78

COc1c(N2C[C@@H]3CCCN[C@@H]3C2)c(F)cc2c(=O)c(C(=O)O)cn(C3CC3)c12 [moxifloxacin] + CC(=O)NC[C@H]1CN(c2ccc(N3CCSCC3)c(F)c2)C(=O)O1 [sutezolid]
Details | AUC25, [3] | Einf, [5] | GRinf, [4] | log2 fractional inhibitory concentration, [1] | log2 fractional inhibitory concentration, [2]
growth medium: acidic pH 5.7, glycerol, time point: constant time point | 0.153 | 0.884 | -0.618 | – | -0.766
growth medium: acidic pH 5.7, glycerol, time point: terminal time point | 0.126 | 0.994 | -0.27 | 0.0336 | -0.628
growth medium: butyrate 5 mM, time point: constant time point | 0.0856 | 0.921 | 0.0433 | – | 2.18
growth medium: butyrate 5 mM, time point: terminal time point | 0.0636 | 0.96 | 0.0229 | 2.06 | 1.99
growth medium: cholesterol 0.05 mM, time point: constant time point | 0.0609 | 0.744 | -0.918 | – | 0.274
growth medium: cholesterol 0.2 mM (cholesterol-high), time point: constant time point | 0.0941 | 1 | -0.886 | -0.0409 | -0.358
growth medium: cholesterol 0.2 mM (cholesterol-high), time point: terminal time point | 0.12 | 1 | -0.872 | 0.362 | -0.612
growth medium: standard 7H9 OADC glycerol, time point: constant = terminal time point (4.2 d) | 0.0573 | 0.969 | 0.0204 | -0.545 | -0.0683
growth medium: valerate 0.1%, time point: constant time point | 0.097 | 0.857 | -0.0498 | – | 0.387
growth medium: valerate 0.1%, time point: terminal time point | 0.0564 | 0.963 | -0.0149 | -0.156 | 0.257

growth medium: hypoxic dormancy (butyrate + nitrate), then recovery
Details | AUC25, [3] | Einf, [5] | GRinf, [4] | log2 fractional inhibitory concentration, [1] | log2 fractional inhibitory concentration, [2]
time point: constant time point | 0.0806 | 0.95 | 0.218 | -1.18 | 0.0759
time point: terminal time point | 0.0478 | 0.902 | 0.508 | 0.502 | 0.726

From the supplement of paper PMC9512659
